Assay results: ChEMBL document CHEMBL4330061, “Antitumoral activity of quinoxaline derivatives: A systematic review” (Eur J Med Chem, 2019)

Legend:
MCF7 = assay: Antiproliferative activity against human MCF7 cells after 48 hrs by MTT assay; format: functional, cell-based; details: MCF7, 48 h
A549 = assay: Antiproliferative activity against human A549 cells after 48 hrs by MTT assay; format: functional, cell-based; details: A549, 48 h

SMILES	IC50 (MCF7) [nM]	IC50 (A549) [nM]
COc1ccc(C2C3CCc4ccc(OC)cc4C3=NN2c2nc3nc4ccccc4nc3s2)cc1 (centres undefined)	1910	3040
C#Cc1cccc(Nc2ncnc3cc(OCCOC)c(OCCOC)cc23)c1 [ERLOTINIB]	2320	4280
